Columns and labels:
IDH1 R132H [1] = biological target: T1, IDH1 R132H (Homo sapiens, UniProt O75874, R132H); assay: Non-denaturing MS binding, IDH1 R132H; details: Figure S7b
T1 construct: made in house; host or cells: Escherichia coli BL21(DE3) pLyS
Experimental: (§1) Non-denaturing mass spectra were obtained using a quadrupole time-of-flight mass spectrometer (Synapt HD MS, Waters, Manchester, UK).[44],[45] […] Protein concentrations were measured using a Nanodrop spectrometer (Thermo Scientific NanoDrop One). Compounds were dissolved in MeOH to avoid DMSO interference with mass spectra. IDH1 (20 μL of 50 μM final) and the compound of interest (1–4% (v/v) MeOH) in 200 mM ammonium acetate at pH 7.5 were pipetted into wells of a sample plate of an automated chip-based nano-electrospray ion source (TriVersa Nanomate, Advion, Ithaka, NY, USA). Compounds were serially diluted in buffer and mixed with IDH1 diluted in buffer. The mixture was sprayed through a nozzle in a Nanomate chip at a spray voltage of 1.8–2.0 kV (spray backing gas pressure 0.8–1.0 psi, inlet pressure 3.8 mbar). […] Data collection and analyses used Waters MassLynx software. Mass spectra were calibrated externally using CsI solution. KD values were calculated using eq 2 as reported[46] at each compound concentration and are reported as an average across multiple concentrations. For inhibitors with a binding stoichiometry of two inhibitors/IDH dimer, the inhibitor-bound protein peak intensity used was a sum of first and second inhibitor-bound protein peak intensities. Data for the IDH1 dimer m/z = 20^+ charge state are shown. For clarity, only 2× NADPH bound protein peaks are annotated.

wt IDH1 [2] = biological target: T2, wt IDH1 (Homo sapiens, UniProt O75874); assay: Isothermal titration calorimetry (ITC), wt IDH1; assay type: binding; details: 40 μM IDH1, 50 mM tris-HCl pH 7.5, 25 °C
T2 construct: made in house; host or cells: Escherichia coli BL21(DE3) pLyS
Experimental: ITC was conducted using a Malvern MicroCal PEAQ-ITC Automated machine (Malvern Panalytical). In general, IDH1 was prepared in 50 mM tris–HCl, pH 7.5, and the compounds were dissolved in the same buffer. 400 μL of cell solution containing 40 μM IDH1 [4% (v/v) DMSO] and 200 μL of the titrant containing 200 or 400 μM compound [2% or 4% (v/v) DMSO] were transferred to an ITC plate (Malvern Panalytical WEL020854-010). […] The injection setup consisted of 19 injections, with 1 initial injection of 0.4 μL and 18 subsequent injections of 2.0 μL each with 150 s between the injections. Thermodynamic parameters were obtained using MicroCal PEAQ-ITC analysis software.

IDH1 R132H [3] = biological target: T1, IDH1 R132H; assay: 1H NMR (700 MHz) reaction monitoring, IDH1 R132H-catalysed conversion of 2OG to 2HG; assay type: biochemical; details: 1 μM IDH1 R132H, 20 μM compound, over […]; in words
Experimental: Nuclear magnetic resonance (NMR) reaction monitoring was performed at 298 K using a Bruker AVIII 700 MHz NMR spectrometer with a 5 mm inverse triple-carbon-inverse (TCI) cryoprobe in 5 mm tubes (Norell). Data were recorded with a relaxation delay of 2 s and 32 scans, employing a pulse sequence with water suppression (^1H excitation sculpting suppression with perfect-echo using a 2 ms Sinc selective inversion pulse). There is a time delay of 184 s between each acquired spectrum over the time-course experiment. Conversion of 2OG to 2HG catalyzed by IDH1 R132H was monitored using 500 μL of 1 μM IDH, 20 μM compound [0.4% (v/v) DMSO, 10 min pre-incubation with IDH], 10 mM MgCl2, 1.5 mM NADPH, and 1.5 mM 2OG, in 50 mM tris-D11-HCl, pH 7.5 in 90% H2O/10% D2O (v/v). Data were processed with TopSpin 3.6.1 software. Signals corresponding to NADPH, NADP^+, 2OG, and 2HG at each time point over a total of 2 to 3 h were integrated, converted to concentrations, and plotted against time. The difference in concentrations in the linear range of the reaction profile was converted to % residual activity with the DMSO control defined as the 100% residual activity reference.

IDH1 R132H [4] = biological target: T1, IDH1 R132H; assay: Differential scanning fluorimetry (DSF) thermal shift, IDH1 R132H; assay type: binding; details: largest change in Tm of IDH1 ([…]) with 3-100 μM inhibitor
Experimental: Thermal shift experiments were carried out using Sypro Orange and a CFX96 Touch Real-Time PCR Detection System (Bio-Rad) machine.[42] […] The standard assay buffer contains 50 mM tris–HCl at pH 7.5. Various concentrations of compounds (1% DMSO final) were mixed with IDH1 for thermal stabilization studies. […] Bio-Rad CFX Manager was used to determine the melting temperature, Tm.

IDH1 R132H [5] = biological target: T1, IDH1 R132H; assay: Ligand-observed 1H NMR (CPMG-edited, 700 MHz) binding, IDH1 R132H; details: line broadening, 10 μM inhibitor, 50 mM tris-D11-HCl pH 7.5
Experimental: (§2) Additional solvent presaturation was applied for 2 s. Samples contained 160 μL of 10 μM compound (0.2% DMSO) in 50 mM tris-D11-HCl, pH 7.5 in 90% H2O/10% D2O (v/v). […] 200 or 400 scans per IDH concentration were recorded, and signals corresponding to the compound were integrated and processed using TopSpin 3.6.1 software.

wt IDH1 [6] = biological target: T2, wt IDH1; assay: Absorbance turnover assay (NADPH, 340 nm), wt IDH1-catalyzed conversion of isocitrate to 2OG; assay type: biochemical; details: wt IDH1 (2 nM), isocitrate to 2OG; 100 mM tris-HCl, 10 mM MgCl2, pH 8.0; read-out: IC50/nM wt IDH1
Experimental: (Figure 3, Scheme 1). […] We employed ^1H NMR (700 MHz) spectroscopy to simultaneously monitor NADPH, NADP^+, 2OG, and 2HG levels (Figure S3) in order to validate observations from the absorbance assays.
IDH1 activities were measured spectrophotometrically by monitoring changes in NADPH absorbance at 340 nm.[10] […] The difference in absorbance, ΔA340, in the linear range of the reaction profile was converted to % residual activity using a DMSO control as the 100% residual activity reference. […] Experiments were performed in (at least) triplicate. The standard assay buffer for IDH1 consists of 100 mM tris–HCl, 10 mM MgCl2, 0.005% (v/v) Tween 20, pH 8.0, 0.2 mM DTT, and 0.1 mg/mL BSA. In general, compounds [25 μL, 0.4% (v/v) DMSO] were pre-incubated with IDH1 (25 μL) for 12 min, followed by addition of DL-isocitrate/2OG (25 μL) and NADP^+/NADPH (25 μL) to initiate the reaction. The substrate/cofactor concentrations were optimized by determining KM values for substrates/cofactors as described.[10]

wt IDH1 [7] = biological target: T2, wt IDH1; assay: Non-denaturing MS binding, wt IDH1
Experimental: as §1

wt IDH1 [8] = biological target: T2, wt IDH1; assay: Ligand-observed 1H NMR (CPMG-edited, 700 MHz) binding, wt IDH1; details: line broadening, 10 μM inhibitor, 50 mM tris-D11-HCl pH 7.5
Experimental: as §2

T2 sequence (O75874 whole entry): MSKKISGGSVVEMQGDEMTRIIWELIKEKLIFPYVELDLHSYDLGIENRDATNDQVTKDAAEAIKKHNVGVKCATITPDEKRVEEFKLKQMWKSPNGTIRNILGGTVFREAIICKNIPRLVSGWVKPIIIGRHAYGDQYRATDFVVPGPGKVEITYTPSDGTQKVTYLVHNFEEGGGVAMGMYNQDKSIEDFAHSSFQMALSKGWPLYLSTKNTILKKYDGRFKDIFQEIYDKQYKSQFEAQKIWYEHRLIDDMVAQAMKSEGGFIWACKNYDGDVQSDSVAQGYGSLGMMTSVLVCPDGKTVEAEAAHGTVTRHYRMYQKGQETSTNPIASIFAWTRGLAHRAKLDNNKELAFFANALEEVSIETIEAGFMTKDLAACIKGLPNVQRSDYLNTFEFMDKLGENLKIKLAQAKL
T1 sequence (O75874 whole entry R132H): as the sequence (O75874 whole entry) above, with R132H counted along it

SMILES: Cc1ccccc1C(C(=O)NC1CCCCC1)N(C(=O)Cn1ccnc1C)c1cccc(F)c1 (stereo not drawn) [AGI-5198]
- stoichiometry, inhibitors per IDH1 dimer, IDH1 R132H (IDH1 R132H [1]): 1
- Kd (wt IDH1 [2]): > 400 µM
- inhibition of IDH1 R132H catalysed conversion of 2OG to 2HG monitored by 1H NMR (IDH1 R132H [3]): weaker inhibition
- Δ Tm/°C by DSF IDH1 R132H (IDH1 R132H [4]): 6.0 °C
- Kd (IDH1 R132H [5]): 8.6 µM
- IC50 (wt IDH1 [6]): > 10000 nM
- stoichiometry, inhibitors per IDH1 dimer, wt IDH1 (wt IDH1 [7]; Figure S7a): 1
- Kd (wt IDH1 [7]; IDH 50 μM, 200 mM ammonium acetate pH 7.5): 608 µM
- Kd (wt IDH1 [8]): 9.1 µM

Reference: article PMC10108345, “Differentiating Inhibition Selectivity and Binding Affinity of Isocitrate Dehydrogenase 1 Variant Inhibitors” (Journal of Medicinal Chemistry, 2023)
